Converted amounts (≈) assume the structure as drawn.
Key:
[1] = target: Topoisomerase IV (Staphylococcus aureus) (UniProt P0C1U9+P0C1S7); experiment: Inhibition of Staphylococcus aureus DNA topoisomerase 4 assessed as residual enzyme activity at 100 uM using relaxed pNO1 plasmid and biotinylated oligonucelotide incubated for 30 mins by fluorescence based DNA relaxation assay; format: protein-complex assay
Escherichia coli [2] = experiment: Antibacterial activity against wild type Escherichia coli ATCC 25922 assessed as inhibition of microbial growth at 50 uM by broth microdilution method; format: functional; details: read-out: GI
Enterococcus faecalis [3] = experiment: Antibacterial activity against Enterococcus faecalis ATCC 29212 assessed as inhibition of microbial growth at 50 uM by broth microdilution method; format: functional; details: read-out: GI
Pseudomonas aeruginosa [4] = experiment: Antibacterial activity against Pseudomonas aeruginosa ATCC 27853 assessed as inhibition of microbial growth by broth microdilution method; format: functional
Staphylococcus aureus [5] = experiment: Antibacterial activity against Staphylococcus aureus 25923 assessed as inhibition of microbial growth by broth microdilution method; format: functional
Enterococcus faecalis [6] = experiment: Antibacterial activity against Enterococcus faecalis ATCC 29212 assessed as inhibition of microbial growth by broth microdilution method; format: functional
DNA gyrase = DNA gyrase (Escherichia coli, UniProt P0AES4+P0AES6); experiment: Inhibition of Escherichia coli DNA gyrase using relaxed pNO1 plasmid and biotinylated oligonucelotide incubated for 30 mins by fluorescence based DNA super-coiling assay; format: protein-complex assay
Escherichia coli [7] = experiment: Inhibition of Escherichia coli DNA topoisomerase 4 assessed as residual enzyme activity at 100 uM using relaxed pNO1 plasmid and biotinylated oligonucelotide incubated for 30 mins by fluorescence based DNA relaxation assay
Escherichia coli [8] = experiment: Antibacterial activity against Escherichia coli imp4213::Tn10 by broth microdilution method; format: functional
[9] = target: DNA gyrase (Staphylococcus aureus) (UniProt P0A0K8+P20831); experiment: Inhibition of Staphylococcus aureus DNA gyrase assessed as residual enzyme activity at 100 uM using relaxed pNO1 plasmid and biotinylated oligonucelotide incubated for 30 mins by fluorescence based DNA super-coiling assay; format: protein-complex assay
Pseudomonas aeruginosa [10] = experiment: Antibacterial activity against Pseudomonas aeruginosa ATCC 27853 assessed as inhibition of microbial growth at 50 uM by broth microdilution method; format: functional; details: read-out: GI
Escherichia coli [11] = experiment: Antibacterial activity against wild type Escherichia coli ATCC 25922 by broth microdilution method; format: functional
Escherichia coli [12] = experiment: Antibacterial activity against wild type Escherichia coli ATCC 25922 assessed as inhibition of microbial growth by broth microdilution method; format: functional
Escherichia coli [13] = experiment: Antibacterial activity against efflux deficient Escherichia coli tolC::Tn10 lacking functional tolC gene by broth microdilution method
Staphylococcus aureus [14] = experiment: Antibacterial activity against Staphylococcus aureus 25923 assessed as inhibition of microbial growth at 50 uM by broth microdilution method; format: functional; details: read-out: GI

Activity [1] [%]	MIC (Pseudomonas aeruginosa [4]) [µM]	MIC (Staphylococcus aureus [5]) [µM]	MIC (Enterococcus faecalis [6]) [µM]	IC50 (DNA gyrase) [µM]	Activity (Escherichia coli [7]) [%]	MIC (Escherichia coli [8]) [µg/mL]	Activity [9] [%]	MIC (Escherichia coli [11]) [µg/mL]	MIC (Escherichia coli [12]) [µM]	MIC (Escherichia coli [13]) [µg/mL]	Compound	inhibition of growth at 50 µM (Escherichia coli [2]) [%]	inhibition of growth at 50 µM (Enterococcus faecalis [3]) [%]	inhibition of growth at 50 µM (Pseudomonas aeruginosa [10]) [%]	inhibition of growth at 50 µM (Staphylococcus aureus [14]) [%]
93	> 125	> 125	> 125	0.89	100	> 256	86	> 256	> 125	> 256	COC(=O)CCC(=O)Nc1nc2c(s1)C[C@@H](NC(=O)c1cc(Cl)c(Cl)[nH]1)CC2	< 50	< 50	< 50	< 50
100	–	–	–	21	103	–	87	–	–	–	Nc1nc2c(s1)C[C@@H](NC(=O)c1cc3ccccc3[nH]1)CC2	–	–	–	–
98	> 125	> 125	> 125	1.7	97	> 256	71	> 256	> 125	128 (≈ 253 µM)	NC(=O)CC(=O)Nc1nc2c(s1)C[C@@H](NC(=O)c1cc(Br)c(Br)[nH]1)CC2	< 50	< 50	< 50	< 50
–	> 125	> 125	> 125	270	–	> 256	–	> 256	> 125	> 256	Nc1nc2c(s1)C[C@@H](NC(=O)c1cc3cc(F)ccc3[nH]1)CC2	< 50	< 50	< 50	< 50
98	> 125	> 125	> 125	2.9	102	> 256	96	> 256	> 125	> 256	Nc1ncc2c(n1)CCC(NC(=O)c1cc(Br)c(Br)[nH]1)C2 (configuration not stated)	< 50	< 50	< 50	< 50
85	> 125	> 125	> 125	9.1	101	256 (≈ 492 µM)	64	> 256	> 125	64 (≈ 123 µM)	COC(=O)CC(=O)Nc1nc2c(s1)C[C@H](NC(=O)c1cc(Br)c(Br)[nH]1)CC2	< 50	< 50	< 50	< 50
103	> 125	> 125	> 125	29	97	–	119	–	> 125	–	Nc1ncc2c(n1)CCC(NC(=O)c1cc3ccccc3[nH]1)C2 (configuration not stated)	< 50	< 50	< 50	< 50
–	> 125	> 125	> 125	520	–	–	–	–	> 125	–	Nc1nc2c(s1)C[C@@H](NC(=O)c1cc(Br)c[nH]1)CC2	< 50	< 50	< 50	< 50
–	> 125	> 125	> 125	12	–	> 256	–	> 256	> 125	> 256	O=C1CCN2C(=N1)SC1=C2CC[C@H](NC(=O)c2cc(Br)c(Br)[nH]2)C1	< 50	< 50	< 50	< 50
99	> 125	> 125	> 125	7.7	47	128 (≈ 333 µM)	79	> 256	> 125	> 256	O=C(O)C(=O)Nc1nc2c(s1)C[C@@H](NC(=O)c1cc3ccccc3[nH]1)CC2	< 50	< 50	< 50	< 50
98	> 125	> 125	> 125	2.6	97	256 (≈ 497 µM)	71	> 256	> 125	64 (≈ 124 µM)	COC(=O)CC(=O)Nc1ncc2c(n1)CCC(NC(=O)c1cc(Br)c(Br)[nH]1)C2 (configuration not stated)	< 50	< 50	< 50	< 50
105	> 125	> 125	> 125	35	97	–	100	–	> 125	–	Nc1ncc2c(n1)CCC(NC(=O)c1cc(Br)c[nH]1)C2 (configuration not stated)	< 50	< 50	< 50	< 50
–	–	–	–	120	–	–	–	–	–	–	Nc1nc2c(s1)CC(CNC(=O)c1cc(Br)c(Br)[nH]1)CC2 (configuration not stated)	–	–	–	–
98	> 125	> 125	> 125	12	97	64 (≈ 193 µM)	85	> 256	> 125	64 (≈ 193 µM)	Nc1nc2c(s1)C[C@@H](NC(=O)c1cc(Cl)c(Cl)[nH]1)CC2	< 50	< 50	< 50	< 50
99	> 125	> 125	> 125	10	101	–	76	–	> 125	–	CCOC(=O)C(=O)Nc1nc2c(s1)C[C@@H](NC(=O)c1cc3ccccc3[nH]1)CC2	< 50	< 50	< 50	< 50
79	> 125	> 125	> 125	8.1	99	> 256	95	> 256	> 125	> 256	O=C(O)CCC(=O)Nc1nc2c(s1)C[C@@H](NC(=O)c1cc3ccccc3[nH]1)CC2	< 50	< 50	< 50	< 50
97	> 125	> 125	> 125	14	96	–	110	–	> 125	–	O=C(O)CC(=O)Nc1nc2c(s1)C[C@@H](NC(=O)c1cc(Br)c[nH]1)CC2	< 50	< 50	< 50	< 50
106	–	–	–	5.7	96	–	90	–	–	–	Nc1ncc2c(n1)CCC(NC(=O)c1cc(Cl)c(Cl)[nH]1)C2 (configuration not stated)	–	–	–	–
–	> 125	> 125	> 125	35	–	> 256	–	> 256	> 125	> 256	COC(=O)CC(=O)Nc1nc2c(s1)C[C@@H](NC(=O)c1cc3ccccc3[nH]1)CC2	< 50	< 50	< 50	< 50
104	> 125	> 125	> 125	9.1	101	–	87	–	> 125	–	COC(=O)CCC(=O)Nc1nc2c(s1)C[C@@H](NC(=O)c1cc3ccccc3[nH]1)CC2	< 50	< 50	< 50	< 50
–	–	–	–	170	–	–	–	–	–	–	Nc1ncc2c(n1)CCC(CNC(=O)c1cc(Br)c(Br)[nH]1)C2 (configuration not stated)	–	–	–	–
104	> 125	> 125	> 125	25	95	–	100	–	> 125	–	COC(=O)CC(=O)Nc1nc2c(s1)C[C@@H](NC(=O)c1cc(Br)c[nH]1)CC2	< 50	< 50	< 50	< 50
